Results published in article PMC11968843, “Sulphostin-inspired N-phosphonopiperidones as selective covalent DPP8 and DPP9 inhibitors” (Nature Communications, 2025).

Experiments:
Assay in all cases: Competitive ABPP / direct target identification with alkyne probe 9 in HEK293 cell lysates
Assay type in all cases: binding, H. sapiens
[1] = biological target: T1, HEK293 cell lysates (proteome-wide targets of probe 9) (Homo sapiens, UniProt Q7Z5P9); settings: protein MUC19
T1 construct: endogenous in cells; host or cells: HEK293 cell lysate

[2] = biological target: T2, HEK293 cell lysates (proteome-wide targets of probe 9) (Homo sapiens, UniProt P60174); settings: protein TPI1
T2 construct: endogenous in cells; host or cells: HEK293 cell lysate

[3] = biological target: T3, HEK293 cell lysates (proteome-wide targets of probe 9) (Homo sapiens, UniProt P37802); settings: protein TAGLN2
T3 construct: endogenous in cells; host or cells: HEK293 cell lysate

[4] = biological target: T4, HEK293 cell lysates (proteome-wide targets of probe 9) (Homo sapiens, UniProt P50990); settings: protein CCT8
T4 construct: endogenous in cells; host or cells: HEK293 cell lysate

[5] = biological target: T5, HEK293 cell lysates (proteome-wide targets of probe 9) (Homo sapiens, UniProt P11021); settings: protein HSPA5
T5 construct: endogenous in cells; host or cells: HEK293 cell lysate

[6] = biological target: T6, HEK293 cell lysates (proteome-wide targets of probe 9) (Homo sapiens, UniProt Q13642); settings: protein FHL1
T6 construct: endogenous in cells; host or cells: HEK293 cell lysate

[7] = biological target: T7, HEK293 cell lysates (proteome-wide targets of probe 9) (Homo sapiens, UniProt P29401); settings: protein TKT
T7 construct: endogenous in cells; host or cells: HEK293 cell lysate

[8] = biological target: T8, HEK293 cell lysates (proteome-wide targets of probe 9) (Homo sapiens, UniProt P04259); settings: protein KRT6B
T8 construct: endogenous in cells; host or cells: HEK293 cell lysate

[9] = biological target: T9, HEK293 cell lysates (proteome-wide targets of probe 9) (Homo sapiens, UniProt P22314); settings: protein UBA1
T9 construct: endogenous in cells; host or cells: HEK293 cell lysate
T9 sequence (P22314 whole entry): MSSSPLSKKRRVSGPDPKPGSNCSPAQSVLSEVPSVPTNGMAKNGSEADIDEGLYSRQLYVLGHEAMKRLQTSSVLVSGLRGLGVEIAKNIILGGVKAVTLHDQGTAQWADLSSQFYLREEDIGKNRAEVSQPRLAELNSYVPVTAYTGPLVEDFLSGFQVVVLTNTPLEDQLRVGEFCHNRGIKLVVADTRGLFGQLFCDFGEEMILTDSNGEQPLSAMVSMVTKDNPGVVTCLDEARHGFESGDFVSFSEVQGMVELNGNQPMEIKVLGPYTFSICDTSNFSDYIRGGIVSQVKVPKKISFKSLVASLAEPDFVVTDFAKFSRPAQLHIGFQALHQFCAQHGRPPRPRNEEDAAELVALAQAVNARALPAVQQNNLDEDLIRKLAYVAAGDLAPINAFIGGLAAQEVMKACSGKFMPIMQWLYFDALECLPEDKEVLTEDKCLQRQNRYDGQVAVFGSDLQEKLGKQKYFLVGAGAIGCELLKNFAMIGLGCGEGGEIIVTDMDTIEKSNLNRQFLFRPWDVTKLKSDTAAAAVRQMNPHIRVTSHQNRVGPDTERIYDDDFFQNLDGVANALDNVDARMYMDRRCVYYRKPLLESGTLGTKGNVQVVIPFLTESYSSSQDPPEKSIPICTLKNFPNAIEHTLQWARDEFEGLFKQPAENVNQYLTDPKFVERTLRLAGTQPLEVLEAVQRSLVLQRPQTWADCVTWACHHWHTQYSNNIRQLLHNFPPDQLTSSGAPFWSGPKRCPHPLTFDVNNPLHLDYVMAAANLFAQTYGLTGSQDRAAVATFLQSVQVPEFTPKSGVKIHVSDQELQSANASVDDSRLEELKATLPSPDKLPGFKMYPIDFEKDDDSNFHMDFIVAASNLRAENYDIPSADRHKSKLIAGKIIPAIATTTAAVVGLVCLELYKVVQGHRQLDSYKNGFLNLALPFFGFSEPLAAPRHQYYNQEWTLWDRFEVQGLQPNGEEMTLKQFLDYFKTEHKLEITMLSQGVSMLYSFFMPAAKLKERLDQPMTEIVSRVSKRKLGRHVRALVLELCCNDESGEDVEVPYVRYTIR

[10] = biological target: T10, HEK293 cell lysates (proteome-wide targets of probe 9) (Homo sapiens, UniProt P06733); settings: protein ENO1
T10 construct: endogenous in cells; host or cells: HEK293 cell lysate
T10 sequence (P06733 whole entry): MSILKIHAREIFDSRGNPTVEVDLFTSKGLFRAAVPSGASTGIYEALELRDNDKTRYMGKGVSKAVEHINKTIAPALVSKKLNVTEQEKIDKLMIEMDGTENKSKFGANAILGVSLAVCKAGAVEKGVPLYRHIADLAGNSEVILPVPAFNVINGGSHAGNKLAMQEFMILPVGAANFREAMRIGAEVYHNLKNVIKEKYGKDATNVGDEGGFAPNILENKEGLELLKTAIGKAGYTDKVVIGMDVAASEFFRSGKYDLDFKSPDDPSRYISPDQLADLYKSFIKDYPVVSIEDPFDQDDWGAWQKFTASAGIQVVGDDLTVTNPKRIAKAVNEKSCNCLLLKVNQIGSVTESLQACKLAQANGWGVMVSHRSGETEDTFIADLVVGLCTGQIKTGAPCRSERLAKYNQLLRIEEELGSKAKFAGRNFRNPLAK

[11] = biological target: T11, HEK293 cell lysates (proteome-wide targets of probe 9) (Homo sapiens, UniProt P62424); settings: protein RPL7A
T11 construct: endogenous in cells; host or cells: HEK293 cell lysate

[12] = biological target: T12, HEK293 cell lysates (proteome-wide targets of probe 9) (Homo sapiens, UniProt P81605); settings: protein DCD
T12 construct: endogenous in cells; host or cells: HEK293 cell lysate
T12 sequence (P81605 20-110): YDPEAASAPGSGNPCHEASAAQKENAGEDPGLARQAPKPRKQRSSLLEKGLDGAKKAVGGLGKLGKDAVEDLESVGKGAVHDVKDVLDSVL

[13] = biological target: T13, HEK293 cell lysates (proteome-wide targets of probe 9) (Homo sapiens, UniProt Q5T749); settings: protein KPRP
T13 construct: endogenous in cells; host or cells: HEK293 cell lysate

[14] = biological target: T14, HEK293 cell lysates (proteome-wide targets of probe 9) (Homo sapiens, UniProt Q14697); settings: protein GANAB
T14 construct: endogenous in cells; host or cells: HEK293 cell lysate
T14 sequence (Q14697 29-944): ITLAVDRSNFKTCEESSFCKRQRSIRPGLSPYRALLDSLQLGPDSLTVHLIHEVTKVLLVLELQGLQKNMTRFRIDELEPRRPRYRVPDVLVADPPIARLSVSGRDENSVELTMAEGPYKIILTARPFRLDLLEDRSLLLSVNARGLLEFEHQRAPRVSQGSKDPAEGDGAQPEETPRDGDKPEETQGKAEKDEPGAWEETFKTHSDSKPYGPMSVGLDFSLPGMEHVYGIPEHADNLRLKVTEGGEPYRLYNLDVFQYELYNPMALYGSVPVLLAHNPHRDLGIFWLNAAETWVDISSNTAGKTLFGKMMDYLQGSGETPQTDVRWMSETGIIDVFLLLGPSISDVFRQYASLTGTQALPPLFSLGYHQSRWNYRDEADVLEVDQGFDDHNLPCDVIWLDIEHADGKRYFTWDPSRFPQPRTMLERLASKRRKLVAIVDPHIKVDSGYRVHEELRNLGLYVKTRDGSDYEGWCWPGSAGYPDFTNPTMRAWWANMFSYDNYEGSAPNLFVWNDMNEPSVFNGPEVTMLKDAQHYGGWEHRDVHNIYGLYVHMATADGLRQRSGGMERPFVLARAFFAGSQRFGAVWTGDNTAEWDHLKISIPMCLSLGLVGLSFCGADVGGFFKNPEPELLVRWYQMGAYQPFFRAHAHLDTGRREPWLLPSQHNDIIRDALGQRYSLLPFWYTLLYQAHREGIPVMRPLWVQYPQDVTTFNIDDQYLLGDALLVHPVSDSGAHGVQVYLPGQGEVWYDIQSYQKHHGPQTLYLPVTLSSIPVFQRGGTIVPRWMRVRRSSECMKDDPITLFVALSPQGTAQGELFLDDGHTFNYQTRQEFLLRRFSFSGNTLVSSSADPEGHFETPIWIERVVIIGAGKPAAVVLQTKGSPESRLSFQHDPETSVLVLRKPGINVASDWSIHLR

[15] = biological target: T15, HEK293 cell lysates (proteome-wide targets of probe 9) (Homo sapiens, UniProt P14618); settings: protein PKM
T15 construct: endogenous in cells; host or cells: HEK293 cell lysate

[16] = biological target: T16, HEK293 cell lysates (proteome-wide targets of probe 9) (Homo sapiens, UniProt O15372); settings: protein EIF3H
T16 construct: endogenous in cells; host or cells: HEK293 cell lysate

[17] = biological target: T17, HEK293 cell lysates (proteome-wide targets of probe 9) (Homo sapiens, UniProt O00295); settings: protein TULP2
T17 construct: endogenous in cells; host or cells: HEK293 cell lysate
T17 sequence (O00295 whole entry): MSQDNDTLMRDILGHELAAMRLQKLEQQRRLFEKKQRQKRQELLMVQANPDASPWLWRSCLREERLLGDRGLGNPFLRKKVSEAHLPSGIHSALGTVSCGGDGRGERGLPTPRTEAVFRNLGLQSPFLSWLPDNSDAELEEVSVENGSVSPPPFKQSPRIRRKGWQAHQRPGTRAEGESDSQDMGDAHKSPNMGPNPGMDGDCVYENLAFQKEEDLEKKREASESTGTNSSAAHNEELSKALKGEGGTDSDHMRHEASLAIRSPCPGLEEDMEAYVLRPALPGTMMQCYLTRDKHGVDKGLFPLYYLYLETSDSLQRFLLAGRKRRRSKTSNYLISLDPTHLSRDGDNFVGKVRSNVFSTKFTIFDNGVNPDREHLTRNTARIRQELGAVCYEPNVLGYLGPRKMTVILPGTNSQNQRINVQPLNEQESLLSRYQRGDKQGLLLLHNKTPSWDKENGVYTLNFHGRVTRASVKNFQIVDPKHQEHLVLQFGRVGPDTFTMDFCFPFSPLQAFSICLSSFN

[18] = biological target: T18, HEK293 cell lysates (proteome-wide targets of probe 9) (Homo sapiens, UniProt P09651); settings: protein HNRNPA1
T18 construct: endogenous in cells; host or cells: HEK293 cell lysate

[19] = biological target: T19, HEK293 cell lysates (proteome-wide targets of probe 9) (Homo sapiens, UniProt O43175); settings: protein PHGDH
T19 construct: endogenous in cells; host or cells: HEK293 cell lysate

[20] = biological target: T20, HEK293 cell lysates (proteome-wide targets of probe 9) (Homo sapiens, UniProt P26641); settings: protein EEF1G
T20 construct: endogenous in cells; host or cells: HEK293 cell lysate

[21] = biological target: T21, HEK293 cell lysates (proteome-wide targets of probe 9) (Homo sapiens, UniProt Q15366); settings: protein PCBP2
T21 construct: endogenous in cells; host or cells: HEK293 cell lysate
T21 sequence (Q15366 whole entry): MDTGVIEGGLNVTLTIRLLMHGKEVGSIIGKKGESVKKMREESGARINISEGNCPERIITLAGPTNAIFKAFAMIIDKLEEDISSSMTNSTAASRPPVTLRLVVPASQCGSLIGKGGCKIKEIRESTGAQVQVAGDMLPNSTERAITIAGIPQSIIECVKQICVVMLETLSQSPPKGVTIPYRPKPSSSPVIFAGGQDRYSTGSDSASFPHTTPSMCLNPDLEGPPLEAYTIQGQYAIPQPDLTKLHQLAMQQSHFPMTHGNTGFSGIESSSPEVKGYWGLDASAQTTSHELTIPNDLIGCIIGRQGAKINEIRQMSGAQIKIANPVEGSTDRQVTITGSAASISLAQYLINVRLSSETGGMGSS

[22] = biological target: T22, HEK293 cell lysates (proteome-wide targets of probe 9) (Homo sapiens, UniProt P10809); settings: protein HSPD1
T22 construct: endogenous in cells; host or cells: HEK293 cell lysate
T22 sequence (P10809 27-573): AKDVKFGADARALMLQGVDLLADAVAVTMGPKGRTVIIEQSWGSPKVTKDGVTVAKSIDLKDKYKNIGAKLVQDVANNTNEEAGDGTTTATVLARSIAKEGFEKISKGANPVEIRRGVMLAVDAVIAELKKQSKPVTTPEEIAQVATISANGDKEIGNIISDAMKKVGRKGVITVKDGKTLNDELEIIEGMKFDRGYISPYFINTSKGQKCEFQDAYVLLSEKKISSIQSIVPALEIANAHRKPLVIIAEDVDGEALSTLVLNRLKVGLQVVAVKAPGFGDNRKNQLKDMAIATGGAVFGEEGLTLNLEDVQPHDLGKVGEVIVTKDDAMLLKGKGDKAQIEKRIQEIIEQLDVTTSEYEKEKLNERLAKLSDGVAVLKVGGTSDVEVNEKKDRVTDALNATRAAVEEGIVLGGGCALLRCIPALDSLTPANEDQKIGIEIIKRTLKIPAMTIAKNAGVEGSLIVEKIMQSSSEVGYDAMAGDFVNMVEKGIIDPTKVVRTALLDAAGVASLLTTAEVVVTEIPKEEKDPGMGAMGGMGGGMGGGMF

[23] = biological target: T23, HEK293 cell lysates (proteome-wide targets of probe 9) (Homo sapiens, UniProt P07814); settings: protein EPRS
T23 construct: endogenous in cells; host or cells: HEK293 cell lysate

[24] = biological target: T24, HEK293 cell lysates (proteome-wide targets of probe 9) (Homo sapiens, UniProt P62937); settings: protein PPIA
T24 construct: endogenous in cells; host or cells: HEK293 cell lysate
T24 sequence (P62937 whole entry): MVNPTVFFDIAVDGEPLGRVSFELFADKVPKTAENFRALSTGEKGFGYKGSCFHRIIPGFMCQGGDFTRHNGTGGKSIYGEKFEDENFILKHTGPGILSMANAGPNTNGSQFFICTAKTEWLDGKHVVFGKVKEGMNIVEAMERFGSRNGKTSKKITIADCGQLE

[25] = biological target: T25, HEK293 cell lysates (proteome-wide targets of probe 9) (Homo sapiens, UniProt P19338); settings: protein NCL
T25 construct: endogenous in cells; host or cells: HEK293 cell lysate
T25 sequence (P19338 whole entry): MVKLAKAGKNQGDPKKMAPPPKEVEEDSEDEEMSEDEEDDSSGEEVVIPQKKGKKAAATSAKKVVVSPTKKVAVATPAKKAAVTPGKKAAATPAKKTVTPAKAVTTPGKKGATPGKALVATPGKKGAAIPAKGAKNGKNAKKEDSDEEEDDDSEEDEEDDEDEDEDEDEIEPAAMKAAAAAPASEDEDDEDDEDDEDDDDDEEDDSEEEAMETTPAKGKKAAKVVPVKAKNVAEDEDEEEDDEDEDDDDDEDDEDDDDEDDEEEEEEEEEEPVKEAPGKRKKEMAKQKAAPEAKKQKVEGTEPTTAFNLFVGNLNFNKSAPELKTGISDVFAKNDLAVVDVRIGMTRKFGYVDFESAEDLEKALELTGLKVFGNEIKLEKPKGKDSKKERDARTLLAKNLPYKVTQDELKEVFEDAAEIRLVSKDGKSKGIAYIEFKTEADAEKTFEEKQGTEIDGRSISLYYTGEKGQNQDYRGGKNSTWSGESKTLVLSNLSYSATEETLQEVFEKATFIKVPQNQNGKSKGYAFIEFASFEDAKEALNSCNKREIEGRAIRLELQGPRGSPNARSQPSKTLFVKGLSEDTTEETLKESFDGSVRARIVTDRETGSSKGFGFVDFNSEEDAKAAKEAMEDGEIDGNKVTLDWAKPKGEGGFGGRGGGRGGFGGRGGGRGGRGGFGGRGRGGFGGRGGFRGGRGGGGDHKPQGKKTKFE

Compound: C#CCCCP(=O)(OCC)N1CCCC(N)C1=O.O=C(O)C(F)(F)F (mixture of isomers) [Compound 9]
- Log2-fold change (9/DMSO) [1]: -1.528
- Log2-fold change (9/DMSO) [2]: 0.2166
- Log2-fold change (9/DMSO) [3]: 0.4985
- Log2-fold change (9/DMSO) [4]: 0.4828
- Log2-fold change (9/DMSO) [5]: -0.3942
- Log2-fold change (9/DMSO) [6]: -0.4077
- Log2-fold change (9/DMSO) [7]: -1.0711
- Log2-fold change (9/DMSO) [8]: -0.8544
- Log2-fold change (9/DMSO) [9]: 0.5182
- Log2-fold change (9/DMSO) [10]: -0.0902
- Log2-fold change (9/DMSO) [11]: 1.788
- Log2-fold change (9/DMSO) [12]: -2.5876
- Log2-fold change (9/DMSO) [13]: -0.1834
- Log2-fold change (9/DMSO) [14]: 0.2816
- Log2-fold change (9/DMSO) [15]: -0.3682
- Log2-fold change (9/DMSO) [16]: 0.7356
- Log2-fold change (9/DMSO) [17]: -0.1649
- Log2-fold change (9/DMSO) [18]: 0.5741
- Log2-fold change (9/DMSO) [19]: 0.8847
- Log2-fold change (9/DMSO) [20]: 0.4327
- Log2-fold change (9/DMSO) [21]: 1.083
- Log2-fold change (9/DMSO) [22]: -1.284
- Log2-fold change (9/DMSO) [23]: 0.7172
- Log2-fold change (9/DMSO) [24]: 1.44
- Log2-fold change (9/DMSO) [25]: 1.258

Compound: CCCCCc1ccc(SCCP(=O)(OCC)N2CCC[C@H](N)C2=O)cc1.O=C(O)C(F)(F)F (some centres unmarked) [Compound 16]
- Log2-fold change (16/9) [1]: 0.8224
- Log2-fold change (16/9) [2]: -0.0839
- Log2-fold change (16/9) [3]: -0.3112
- Log2-fold change (16/9) [4]: -0.5032
- Log2-fold change (16/9) [5]: 0.6165
- Log2-fold change (16/9) [6]: 0.2096
- Log2-fold change (16/9) [7]: 1.379
- Log2-fold change (16/9) [8]: 1.89
- Log2-fold change (16/9) [9]: -0.4211
- Log2-fold change (16/9) [10]: 0.05891
- Log2-fold change (16/9) [11]: 0.2888
- Log2-fold change (16/9) [12]: 2.05
- Log2-fold change (16/9) [13]: 0.315
- Log2-fold change (16/9) [14]: 0.1876
- Log2-fold change (16/9) [15]: 0.00104
- Log2-fold change (16/9) [16]: -0.06894
- Log2-fold change (16/9) [17]: 0.6272
- Log2-fold change (16/9) [18]: -1.553
- Log2-fold change (16/9) [19]: -0.3162
- Log2-fold change (16/9) [20]: -0.1709
- Log2-fold change (16/9) [21]: -0.4376
- Log2-fold change (16/9) [22]: 0.04221
- Log2-fold change (16/9) [23]: -0.09528
- Log2-fold change (16/9) [24]: -1.716
- Log2-fold change (16/9) [25]: -1.045
